We go through twelve compounds from article PMC5000470, “Optimization of extraction parameters of PTP1β (protein tyrosine phosphatase 1β), inhibitory polyphenols, and anthocyanins from Zea mays L. using response surface methodology (RSM)” (BMC Complementary and Alternative Medicine, 2016).

Assay [1] concerns the target T1, PTP1β (human, recombinant) (Homo sapiens, UniProt P18031).
T1 construct: purchased BIOMOL International LP (Plymouth Meeting, PA)
T1 sequence (P18031 1-435): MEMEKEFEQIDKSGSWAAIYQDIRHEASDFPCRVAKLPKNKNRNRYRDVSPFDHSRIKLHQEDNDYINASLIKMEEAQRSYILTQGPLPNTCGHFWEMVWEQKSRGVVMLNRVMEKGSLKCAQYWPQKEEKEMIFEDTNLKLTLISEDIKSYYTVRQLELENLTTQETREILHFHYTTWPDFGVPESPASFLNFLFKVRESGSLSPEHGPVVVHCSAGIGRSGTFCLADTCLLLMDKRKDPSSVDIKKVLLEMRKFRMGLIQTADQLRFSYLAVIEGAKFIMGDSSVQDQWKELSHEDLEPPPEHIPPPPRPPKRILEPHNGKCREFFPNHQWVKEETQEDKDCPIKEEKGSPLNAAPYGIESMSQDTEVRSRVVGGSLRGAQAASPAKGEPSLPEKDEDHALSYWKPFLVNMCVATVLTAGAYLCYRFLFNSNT
Description: PTP1β inhibitory activity assay (pNPP substrate). In kind it is biochemical. The following applies: for inhibition at 10 µg/mL: concentration 10 μg/mL; for inhibition at 50 µg/mL: concentration 50 μg/mL; for inhibition at 25 µg/mL: concentration 25 μg/mL. The procedure: A PTP1β (human, recombinant) drug discovery kit was purchased from BIOMOL® International LP (Plymouth meeting, PA). Enzymatic activity was measured using pNPP, as described previously. To each of the 96-wells in a microtiter plate (final volume: 100 μL) was added 2 mM pNPP and PTP1β (0.05-0.1 ng/well) in a buffer containing 50 mM citrate (pH 6.0), 0.1 M sodium chloride, 1 mM EDTA, and 1 mM dithiothreitol, with or without test compounds. Following incubation at 37 °C for 30 min, the reaction was terminated with 10 M sodium hydroxide.
All calculations and analyses were performed using statistical analysis system (SAS, SAS Institude Inc., NC, USA, version 9.1) software and Sigma plot (Systat Software Inc., USA, version 11). Inhibition rates were calculated as percentages (%) with respect to the control value and IC50 value was estimated from the least-squares regression line of the logarithmic concentration plotted against inhibitory activity.

Assay [2] concerns human recombinant aldose reductase. On the set-up: method as in PMID 23586057. The following applies: cited from earlier work.
Assay [3] deals with rat lenses aldose reductase. On the set-up: method as in PMID 23586057. The following applies: cited from earlier work.
In assay [4] the target is T1, PTP1β (human, recombinant). Description: Kinetics of PTP1β inhibition (Lineweaver-Burk plots, pNPP substrate). On the set-up: dose or concentration left out as unconfirmed. It counts as biochemical. As to the method: […] The initial rate was determined on the basis of the rate of increase in absorbance at 405 nm. The Michaelis-Menten constant (Km) and maximal velocity (Vmax) of PTP1β were determined by Lineweaver-Burk Plot analysis for competitive inhibition, and the intercept on the vertical axis for noncompetitive inhibition.
A kinetic analysis of PTP1β inhibition by compounds 7 and 11 using Lineweaver-Burk plots of 1/velocity and 1/concentration of substrate is shown in Fig. 2. […] However, compound 7 yielded a noncompetitive inhibition pattern against PTP1β. […] These compounds may be potential lead compounds for further development as a functional food source for the prevention of diabetes.

Setting [5] is: Table 2, concentration 100 μg/mL, read-out: Inhibition (%).
Where [6] appears, read: Table 2, isolated compounds, mean of 3 duplication analyses, read-out: IC50 (μg/ml) (converted).
Where [7] appears, read: isolated compounds, read-out: IC50.

Like-named read-outs stand apart in the source and are kept apart here.

As to `O=C(O)/C=C/c1ccc(O)cc1` [compound 4, p-4-hydroxycinnamic acid], the inhibition at 100 µg/mL in assay [1] (setting [5]) is below 50%.
As to `Cc1ccc(C(=O)Nc2ccc(S(=O)(=O)O)c3cc(S(=O)(=O)O)cc(S(=O)(=O)O)c23)cc1NC(=O)c1cccc(NC(=O)Nc2cccc(C(=O)Nc3cc(C(=O)Nc4ccc(S(=O)(=O)O)c5cc(S(=O)(=O)O)cc(S(=O)(=O)O)c45)ccc3C)c2)c1` [Suramin, suramin, reference compound], in assay [1] (Table 1, concentration 3.21 μg/mL), the inhibition at 3.21 µg/mL stood at 10.7%. In assay [1] (Table 1, concentration 6.49 μg/mL), the inhibition at 6.49 µg/mL came out at 40.6%. Further, the inhibition at 12.97 µg/mL in assay [1] (Table 1, concentration 12.97 μg/mL) stood at 61.9%. Also, the inhibition at 1 µg/mL in assay [1] (Table 2, concentration 1 μg/mL) worked out at 10.7%. The inhibition at 2.5 µg/mL in assay [1] (Table 2, concentration 2.5 μg/mL) came to 46.5%. For the same compound, the inhibition at 5 µg/mL in assay [1] (Table 2, concentration 5 μg/mL) was determined as 64.3%.
For `OC[C@H]1O[C@@H](Oc2cc3c(O)cc(O)cc3[o+]c2-c2ccc(O)cc2)[C@H](O)[C@@H](O)[C@@H]1O` [compound 9, pelargonidin-3-glucoside], the IC50 in assay [1] (setting [6]) was 211 µM. Also, in assay [1] (Table 2), the inhibition at 10 µg/mL was 1.09% and the inhibition at 50 µg/mL was determined as 13.3%. Further, in assay [1] (setting [5]), the inhibition at 100 µg/mL was found to be 55%. The IC50 in assay [1] (setting [7]) worked out at 211 µM.
For `COc1cc(-c2[o+]c3cc(O)cc(O)c3cc2O[C@@H]2O[C@H](CO)[C@@H](O)[C@H](O)[C@H]2O)ccc1O` [compound 10, peonidin-3-glucoside], the inhibition at 100 µg/mL in assay [1] (setting [5]) was below 50%.
Regarding `COc1cc(/C=C/C(=O)O)ccc1O` [compound 5, ferulic acid], in assay [1] (setting [6]), the IC50 is 185 µM. Also, in assay [1] (Table 2), the inhibition at 10 µg/mL was 28.3% and the inhibition at 50 µg/mL was determined as 64.5%. The inhibition at 100 µg/mL in assay [1] (setting [5]) worked out at 96.1%. In assay [1] (setting [7]), the IC50 stood at 185 µM.
For the compound `OC[C@H]1O[C@@H](Oc2cc3c(O)cc(O)cc3[o+]c2-c2ccc(O)c(O)c2)[C@H](O)[C@@H](O)[C@@H]1O` [compound 8, cyanidin-3-glucoside], the inhibition at 100 µg/mL in assay [1] (setting [5]) was below 50%.
As to `O=c1c(O[C@@H]2O[C@H](CO)[C@@H](O)[C@H](O)[C@H]2O)c(-c2ccc(O)c(O)c2)oc2cc(O)cc(O)c12` [compound 6, hirsutrin], in assay [2], the “inhibitory activity on human recombinant aldose reductase” value was “significant inhibitory activities”. Also, the inhibition at 100 µg/mL in assay [1] (setting [5]) was below 50%. The “inhibitory activity on rat lenses aldose reductase” value in assay [3] is reported as “significant inhibitory activities”.
Consider `O=C(O)c1ccc(O)c(O)c1` [compound 1, protocatechuic acid], for which the inhibition at 100 µg/mL in assay [1] was below 50%.
Take `COc1cc(C(=O)O)ccc1O` [compound 2, vanillic acid]: in assay [1] (setting [5]), the inhibition at 100 µg/mL was below 50%.
Consider `O=C(O)c1c(O)cc(O)cc1O` [compound 3, 2,4,6-trihydroxy benzoic acid], for which the inhibition at 100 µg/mL in assay [1] (setting [5]) was below 50%.
On to `COc1cc(-c2oc3cc(O)cc(O)c3c(=O)c2O[C@@H]2O[C@H](CO)[C@@H](O)[C@H](O)[C@H]2O)ccc1O` [compound 7, 3′-methoxyhirsutrin], for which the “type of inhibition of PTP1β” value in assay [4] is “noncompetitive”. In addition, the “inhibitory activity on human recombinant aldose reductase” value in assay [2] was “significant inhibitory activities”. The IC50 in assay [1] (setting [6]) is 64 µM. Moreover, in assay [1] (Table 2), the inhibition at 10 µg/mL came to 15%, the inhibition at 25 µg/mL is 36.8% and the inhibition at 50 µg/mL was determined as 85.9%. For the same compound, in assay [1] (setting [7]), the IC50 was 64 µM. Also, the “inhibitory activity on rat lenses aldose reductase” value in assay [3] is recorded as “significant inhibitory activities”.
Turning to `O=C(O)CC(=O)OC[C@H]1O[C@@H](Oc2cc3c(O)cc(O)cc3[o+]c2-c2ccc(O)c(O)c2)[C@H](O)[C@@H](O)[C@@H]1O` [compound 11, cyanidin-3-(6”-malonylglucoside)], the “type of inhibition of PTP1β” value in assay [4] is given as “mixed”. The “inhibitory activity on human recombinant aldose reductase” value in assay [2] is recorded as “significant inhibitory activities”. Besides, the IC50 in assay [1] (setting [6]) was 54.1 µM. In addition, in assay [1] (Table 2), the inhibition at 10 µg/mL was 18.5%, the inhibition at 25 µg/mL worked out at 36.2% and the inhibition at 50 µg/mL turned out to be 91.7%. The IC50 in assay [1] (setting [7]) was 54.1 µM. In addition, the “inhibitory activity on rat lenses aldose reductase” value in assay [3] is listed as “significant inhibitory activities”.

The term inhibition denotes the share of the control response that was lost under treatment.
